According to patent publication US6818407B2, “Anti-endotoxic antimicrobial cationic peptides and methods of use therfor” (priority 1998, dated 2004):
Ends that are not written are not given here.

Tests used:
E. coli [1] = assay: MIC, broth microdilution assay in polypropylene microtiter trays; format: cell-based; conditions: average of three separate experiments
In short: (§1)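 MIC values record the lowest peptide concentration at which turbidity (OD) remained unchanged throughout the assigned period.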

P. aeruginosa = assay: as above; format: cell-based; conditions: average of three separate experiments
In short: as §1

S. aureus K147 = assay: as above; format: cell-based; conditions: average of three separate experiments
In short: as §1

S. aureus = assay: as above; format: cell-based; conditions: average of three separate experiments
In short: as §1

S. epidermis = assay: as above; format: cell-based; conditions: average of three separate experiments
In short: as §1

[2] = tested on: mutant (Nal B, H744) of P. aeruginosa; assay: microbe, parasite or virus in culture; format: cell-based
Experimental: (§2) The biological activity of the peptides can be determined by standard methods known to those of skill in the art, such as Aminimal inhibitory concentration (MIC)≅ assay described in the present examples, whereby the lowest concentration at which no change in OD is observed for a given period of time is recorded as MIC. Alternatively, Afractional inhibitory concentration (FIC)≅ is also useful for determination of synergy between the peptides of the invention, or the peptides in combination with known antibiotics. FICs are performed by checkerboard titrations of peptides in one dimension of a microtiter plate, and of antibiotics in the other dimension, for example. The FIC is calculated by looking at the impact of one antibiotic on the MIC of the other and vice versa. […] Preferably, an FIC of less than 0.5 is obtained for synergism. As used herein, FIC can be determined as follows: [formula]
(§3) To test whether the peptides of the invention synergize with various antibiotics, the following method was employed. Fractional Inhibitory Concentration (FIC) was used to determine synergy of peptides combined with antibiotics (e.g., carbenicillin/ciprofloxacin) against Pseudomonas aeruginosa. The following methodology was followed:
(§4) (1) Determination of MIC of cationic peptides (MIC A):
(§5) 100 μl Mueller Hinton broth (MHB) was added per well
(§6) 12.5 μl of 10× test concentration peptide was added per well to get final peptide concentration of e.g., 128, 64, 32, . . . 0.025 μg/ml from row 1 to 11;
(§7) 10 μl of 10^−4 dilution of overnight bacterial culture was added per well.
(§8) (2) Determination of MIC of Carbenicillin/Ciprofloxacin (MIC B):
(§9) 100 μl MHB was added per well;
(§10) 100 μl of 2× test concentration of antibiotic was added in the first well of the row, and doubling dilutions performed across the plate from column 1 to 11;
(§11) (3) Determination of MIC of antibiotics (B) when combined with peptides at concentration A:
(§12) 100 μl Carbenicillin (512 μg/ml) or Ciprofloxacin (8 μg/ml) was added in each well of column 1; doubling dilutions were performed across the plate;
(§13) 100 μl of the peptide was added in all wells of row 1, mixed, and 100 μl withdrawn and added to row 2, etc., creating a checkerboard titration.
(§14) 10 μl of 10^−4 dilution of overnight culture was added per well;
(§15) plates were incubated at 37EC for 18-24 hours. Combination MIC values A and B were taken as the lowest concentration of drug that reduced bacterial growth by more than 50% in any given column.
(§16) (4) FIC index=FICA+FICB=(A)/MIC A+(B)/MIC B. An FIC index of approximately 0.5 or less indicates synergy; 1.0 reflects additivity; and >1.0 indicates antagonism.

[3] = tested on: β-lactamase derepressed mutant (H547) of P. aeruginosa; assay: microbe, parasite or virus in culture; format: cell-based; conditions: P. aeruginosa H547
Experimental: as §2, §3, §4, §5, §6, §7, §8, §9, §10, §11, §12, §13, §14, §15, §16

E. coli [4] = assay: Synergy study (checkerboard titration) with hen white lysozyme; format: cell-based
Experimental: as §2

P. aeruginosa (H103) = assay: as above; format: cell-based
Experimental: as §2

Salmonella typhi = assay: as above; format: cell-based
Experimental: as §2

[5] = Lethal endotoxemia in galactosamine-sensitized mice; format: in vivo, CD-1 mice; conditions: peptide 200 μg intraperitoneal within 10 min of 10 μg LPS; 24 hours post injection; 5 mice per group; no peptide 100
Experimental: To confirm this in vivo, endotoxic shock was induced by intraperitoneal injection of 10 μg of E.coli 0111:B4 LPS in phosphate-buffered saline (PBS; pH 7.2) into galactosamine-sensitized 8- to 10- week old female CD-1 mice (5 per group). In experiments involving peptides, 200 μg in 100 μl of sterile water was injected at separate intraperitoneal sites within 10 min of LPS injection. Survival was monitored at 24 hours post injection.

[6] = tested on: Pseudomonas aeruginosa strain M2; assay: Protection of neutropenic CD-1 mice challenged with Pseudomonas aeruginosa; format: in vivo; design: Survival post bacterial challenge, surviving mice: reference not given here; conditions: for Survival (%) post bacterial challenge: PBS 8
In short: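 Neutropenia induced by three i.p. cyclophosphamide doses ([…], alternate days); mice then infected i.p. with 200-300 organisms/mouse. Peptides (200 µg/mouse = 8 mg/kg) in buffered citrate given i.p. at 30 min (single) or 30 min and 16 hrs (double) post-challenge; PBS control; mean of 2 experiments.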

[7] = cationic peptide concentration, combined with lysozyme
[8] = lysozyme concentration, combined with the peptide

KWKSFIKKLTKAAKKVVTTAKKPLIV [CM2]
MIC E. coli (E. coli [1]): 1 µg/mL
MIC P. aeruginosa (P. aeruginosa): 3 µg/mL
MIC S. aureus K147 (S. aureus K147): >64 µg/mL
MIC S. aureus (S. aureus): >64 µg/mL
MIC S. epidermis (S. epidermis): 5 µg/mL
(B) MIC of Cipro when combined with peptide ([2]; ciprofloxacin with peptide at concentration (A), Nal B, H744): .25 µg/mL
MIC A MIC of Peptides ([2]; peptide alone, P. aeruginosa mutant Nal B, H744 (Table 5)): 1 µg/mL
(A) Peptide doses together with Cipro ([2]; peptide concentration in combination with ciprofloxacin, Nal B, H744): .5 µg/mL
(B) MIC of Carb when combined with peptide ([3]; Carbenicillin with peptide at concentration (A)): 64 µg/mL
MIC A MIC of Peptides ([3]; peptide alone): 4 µg/mL
(A) Peptide doses together with Carb ([3]; peptide concentration in combination with Carbenicillin): .5 µg/mL
FIC for combination of cationic peptide and lysozyme (E. coli [4]): 0.25
Lowest [CP] showing synergy (E. coli [4]; [7]): 0.081 µg/mL
Lowest [Lyso] showing synergy (E. coli [4]; [8]): 7.8 µg/mL
FIC for combination of cationic peptide and lysozyme (P. aeruginosa (H103)): 0.37
Lowest [CP] showing synergy (P. aeruginosa (H103); [7]): 1.3 µg/mL
Lowest [Lyso] showing synergy (P. aeruginosa (H103); [8]): 7.8 µg/mL
FIC for combination of cationic peptide and lysozyme (Salmonella typhi): 0.53
Lowest [CP] showing synergy (Salmonella typhi; [7]): 2.61 µg/mL
Lowest [Lyso] showing synergy (Salmonella typhi; [8]): 31.3 µg/mL
Mortality (%) [5]: 80%
Survival post bacterial challenge, surviving mice ([6]; double dose (200 μg per mouse i.p. at 30 min and 16 hrs), 16 hr): 14
Survival post bacterial challenge, surviving mice ([6]; double dose, 24 hr): 14
Survival post bacterial challenge, surviving mice ([6]; double dose, 41 hr): 10
Survival post bacterial challenge, surviving mice ([6]; double dose, 48 hr): 7
Survival post bacterial challenge, surviving mice ([6]; double dose, 64 hr): 7
Survival (%) post bacterial challenge ([6]; double dose, 64 hr): 50%
Survival post bacterial challenge, surviving mice ([6]; double dose, 72 hr): 7
Survival (%) post bacterial challenge ([6]; double dose, 72 hr): 50%
Survival post bacterial challenge, surviving mice ([6]; double dose, 96 hr): 6
Survival (%) post bacterial challenge ([6]; double dose, 96 hr): 42%
Survival post bacterial challenge, surviving mice ([6]; single dose (200 μg per mouse i.p. at 30 min), 16 hr): 15
Survival post bacterial challenge, surviving mice ([6]; single dose, 24 hr): 15
Survival post bacterial challenge, surviving mice ([6]; single dose, 41 hr): 13
Survival post bacterial challenge, surviving mice ([6]; single dose, 48 hr): 12
Survival post bacterial challenge, surviving mice ([6]; single dose, 64 hr): 11
Survival (%) post bacterial challenge ([6]; single dose, 64 hr): 73%
Survival post bacterial challenge, surviving mice ([6]; single dose, 72 hr): 11
Survival (%) post bacterial challenge ([6]; single dose, 72 hr): 73%
Survival post bacterial challenge, surviving mice ([6]; single dose, 96 hr): 10
Survival (%) post bacterial challenge ([6]; single dose, 96 hr): 66%
